According to patent publication US20060058398A1, “Medicinal compositions containing vitamin k's as nerve growth factor potentiator and utilization thereof” (Hisamitsu Pharmaceutical Co., Inc., priority 2002, published 2006):
Where two headings read alike, the source gives them in different places.

Tests used:
Type in all cases: cell-based
[1] = system: PCD12 cells; assay: Bioassay for neurite elongation (potentiation of NGF activity); conditions: for number of cells having neurites (morphological change): 100 μg/ml together with NGF (10 ng/ml) (FIG. 3); for effect of potentiating neurite elongation compared with the negative control group added with NGF 10 ng/ml: 100 μg/ml vitamin K, 48 hours incubation, ratio of cells having neurites (FIG. 1); for effect of potentiating neurite elongation in PCD12 cells: 100 μg/ml, in the presence of low dose of NGF (0-50 ng/ml) (FIG. 1)
Description: Cells (PCD12 cells) were harvested and plated on a complete medium of collagen-coating tissue incubation dish in the density of 1.3×10^4 cells/cm^2. […] After 48 hours of incubation, the ratio of cells having neurites was examined using a phase-contrast microscope under ×200 magnification. […] Each measurement in the data is the mean value calculated from examining random 6 […] duplicate experiments, whereby at least 100 cells/point was counted for calculation.

[2] = system: PCD12 cells
Description: Cells (PCD12 cells) were harvested and plated on a complete medium of collagen-coating tissue incubation dish in the density of 1.3×10^4 cells/cm^2. After 24 hours, NGF (0-50 ng/ml) and 100 μg/ml (the maximum concentration wherein toxicity against PCD12 cells is not observed) of vitamin K1 or vitamin K2 (n=4) were added to the cells.

[3] = system: PCD12 cells; assay: Effect of each inhibitor on neurite elongation potentiated by vitamin K's; conditions: 10 μM PD98059 pretreatment, 48 hours incubation (FIG. 4)
Description: In order to study the action mechanism of vitamin K's, influence of MAPK kinase inhibitor (PD98059), protein kinase A (PKA) inhibitor, and protein kinase C (PKC) inhibitor (chelerythrine chloride) on the effects for potentiating neurite elongation of vitamin K's in PCD12 cells were studied. Pre-incubation of cells was carried out for 1 hour in the presence or in the absence of the inhibitor before treatment of NGF or vitamin K compound. After 48 hours of incubation, the ratio of cells having neurites was examined.

## CC1=C(C/C=C(\C)CCC[C@H](C)CCC[C@H](C)CCCC(C)C)C(=O)c2ccccc2C1=O [vitamin K1, phylloquinone]
[1]
  number of cells having neurites (morphological change): remarkably increased
  effect of potentiating neurite elongation compared with the negative control group added with NGF 10 ng/ml: about 1.8 times
  effect of potentiating neurite elongation in PCD12 cells: confirmed
[2]; rat
  maximum concentration wherein toxicity against PCD12 cells is not observed: 100 µg/mL

## menaquinone [vitamin K2]
[1]
  number of cells having neurites (morphological change): remarkably increased
  effect of potentiating neurite elongation compared with the negative control group added with NGF 10 ng/ml: about 2.4 times
  effect of potentiating neurite elongation in PCD12 cells: confirmed
[2]
  maximum concentration wherein toxicity against PCD12 cells is not observed: 100 µg/mL

## COc1cccc(-c2cc(=O)c3ccccc3o2)c1N [PD98059]
[3]
  inhibition of the potentiation of vitamin K's: almost completely inhibited
